# Measurements published in paper PMC11653107, “Development of a UPLC-MS/MS method for the determination of sulfatinib and its no interaction with myricetin in rats” (Frontiers in Pharmacology, 2024).
# Read-outs that look alike come from different tables or passages of the source.
# Assays:
# [1] = Stability of sulfatinib in rat plasma QCs under storage and processing conditions; conditions: analyzer 10°C for 4 h, −80°C for 3 weeks, room temperature for 3 h, three freeze-thaw cycles; QCs 2, 800, 1,600 ng/mL
# Method: The stability was investigated by repeating the assay five times under different storage conditions for three rat plasma QCs (2, 800 and 1,600 ng/mL). The conditions included stability in the analyzer (4 h, 10°C), long-term storage ([…], 3 weeks), short-term storage (3 h, room temperature) and freeze-thaw cycles (three complete times).
# [2] = test system: cytochrome P450 3A4 (CYP3A4); parameters: method as in Li et al., 2020b; conditions: in vitro; ref Li et al., 2020b; cited from earlier work
# [3] = parameters: method as in Li et al., 2020a; conditions: healthy subjects, single oral intake of 300 mg; ref Li et al., 2020a; cited from earlier work
# [4] = Pharmacokinetics of sulfatinib in rats, DDI study with myricetin (UPLC-MS/MS of plasma); assay type: in vivo, Sprague-Dawley (SD) rats
# Method: In the present assay, a Waters Xevo TQS triple quadrupole tandem mass spectrometer (Milford, MA, United States), connected to a Waters Acquity UPLC I class system (Milford, MA, United States) was applied in the method. The parameters of mass spectrometry were determined as follows before analysis: capillary voltage 2.0 kV, desolvation gas 1000 L/h, collision gas 0.15 mL/min, desolvation temperature 600°C and conical gas 150 L/h. Seperations of sulfatinib and IS were done on an Acquity UPLC BEH C18 (2.1 mm × 50 mm, 1.7 µm) set at 40°C. The autosampler used to analyze all samples was held at 10°C. The measurements were conducted using a multiple reaction monitoring (MRM) scanning mode with an electrospray ionization (ESI) source in positive ion mode. At a flow rate of 0.40 mL/min, the mobile phase was consisted of acetonitrile (A) and 0.1% formic acid aqueous solution (B), with a linear gradient scheme as follows: 0–0.5 min, A/B = 10/90%; 0.5–1.0 min, A/B = 90/10%; 1.0–1.4 min, A/B = 90/10%; 1.4–1.5 min, A/B = 10/90%; 1.5–2.0 min, A/B = 10/90%. The parameters optimized for mass spectrometry of sulfatinib and IS included cone voltages of 20 V and 30 V, and collision energies of 25 eV and 28 eV, respectively. The parent and daughter ions of sulfatinib and IS were m/z 480.98 → 329.02 and m/z 426.87 → 369.84, respectively (as indicated in Table 1).
# The protein was precipitated by mixing 300 µL of acetonitrile and 10 µL of IS working solution into 100 µL of plasma. After a full vortex for 2.0 min, the mixture was centrifuged at 4°C for 10 min (13,000 rpm). Afterwards, the supernatant of 100 µL was moved into a vial, with a 2 µL injected and analyzed by UPLC-MS/MS.
# Ten male Sprague-Dawley (SD) rats for this experiment, weighting 200 ± 10 g, were purchased from the Experimental Animal Center of The First Affiliated Hospital of Wenzhou Medical University (Zhejiang, China). Prior to the start of the investigation, all rats were domesticated under laboratory conditions for 1 week to minimize their suffering. The animals were kept in an appropriate environment (temperature, humidity, light conditions, freely available food and water). The experimental process of the animals was strictly adhered to the regulations for the care and use of laboratory animals as reviewed and approved by the Ethics Committee of The First Affiliated Hospital of Wenzhou Medical University (Wenzhou, China). The preparation of sulfatinib for gavage was carried out using 0.5% carboxymethylcellulose sodium (CMC-Na) solution. Half an hour after the administration of either myricetin or the same dose of 0.5% CMC-Na solution, 10 rats were simultaneously administered orally with sulfatinib (30 mg/kg). At 0.25, 0.5, 0.75, 1, 1.5, 2, 3, 4, 6, 8, 12, 24, 48 h, approximately 0.3 mL of blood was obtained from the tail vein of SD rats and transferred into heparinized polyethylene tubes. A 100 µL of plasma was obtained by centrifuging the blood at 13,000 rpm for 8 min and stored at −80°C for sample treatment.
# Origin 9.0 (Originlab Inc., Northampton, MA, United States) was used in this experiment to plot the mean concentration of sulfatinib versus time in plasma. DAS software (Drug and Statistics, Version 3.0, China) was applied to fit the non-compartmental model of sulfatinib, and the main pharmacokinetic parameters of sulfatinib were obtained. Pharmacokinetics were compared for each group using SPSS software (version 24.0, Chicago, United States, SPSS Inc.) using the independent samples t-test. At p < 0.05, the difference was significant.
# [5] = cited from earlier work
# CYP3A4 = test system: CYP3A4; parameters: method as in Li et al., 2018; conditions: studies in rats; ref Li et al., 2018; cited from earlier work
# CYP2C9 = test system: CYP2C9; parameters: method as in Li et al., 2018; conditions: studies in rats; ref Li et al., 2018; cited from earlier work
# [6] = male, Sprague-Dawley, rat, in vivo, po, 30 mg/kg
compound,measurement,setting,value
Cc1cc2cc(Oc3ccnc(Nc4cccc(CS(=O)(=O)NCCN(C)C)c4)n3)ccc2[nH]1 [Sulfatinib],stability in rat plasma,[1],satisfied
same,enzyme mediating the metabolism,[2],major enzyme mediating the metabolism
same,AUC,[3],2670 ng·h/mL
same,Cmax,[3],205 ng/mL
same,t1/2,[3],17.1 h
same,time to Cmax,[3],approximately 2 h
same,AUC0→t,[4]; [6],"9,168.6 ± 2,531.4 ng/mL·h"
same,AUC0→∞,[4]; [6],"9,171.6 ± 2,532.4 ng/mL·h"
same,CLz/F,[4]; [6],58.3 ± 18.3 mL/min/kg
same,Tmax,[4]; [6],4.4 ± 0.9 h
same,AUC(0-t),"[4]; male, Sprague-Dawley, rat, in vivo, po, 30 mg/kg, AUC0→t",9250 ng·h/mL
same,AUC(0-inf),"[4]; male, Sprague-Dawley, rat, in vivo, po, 30 mg/kg, AUC0→∞",9260 ng·h/mL
same,CL/F,"[4]; male, Sprague-Dawley, rat, in vivo, po, 30 mg/kg, CLz/F",55 mL/min/kg
same,Cmax,"[4]; male, Sprague-Dawley, rat, in vivo, po, 30 mg/kg, Cmax",1040 ng/mL
same,Tmax,"[4]; male, Sprague-Dawley, rat, in vivo, po, 30 mg/kg, Tmax",3.4 ± 1.7 h
same,half-life,"[4]; male, Sprague-Dawley, rat, in vivo, po, 30 mg/kg, t1/2",3.64 h
same,AUC,"[4]; rat, in vivo, po, 30 mg/kg",8970 ng·h/mL
same,time to Cmax,"[4]; rat, in vivo, po, 30 mg/kg",approximately 3.8 h
same,serum level of the original drug,"[5]; after oral administration, ref Li et al., 2020b",about 40.3%
same,fecal excretion,"[5]; excretion route mainly fecal, ref Lu et al., 2024, Xu et al., 2017, Li et al., 2020a",88%
"O=c1c(O)c(-c2cc(O)c(O)c(O)c2)oc2cc(O)cc(O)c12 [myricetin, Myricetin]",inhibition of CYP3A4,CYP3A4,inhibited
same,effect of myricetin on AUC0→∞ and Cmax of sulfatinib,"[4]; rats, 50 mg/kg myricetin orally half an hour before 30 mg/kg sulfatinib, P > 0.05",no significant effect
same,inhibition of CYP2C9,CYP2C9,inhibited
